Laboratory results as given in ChEMBL document CHEMBL1151980, “Tubulin-interactive natural products as anticancer agents” (2009).

Tested on: B16
Test: In vivo antitumor activity against mouse B16 cells assessed as increase in life span
Type: functional

## CC(=O)O[C@H]1C(=O)[C@@]2(C)[C@H]([C@H](OC(=O)c3ccccc3)[C@]3(O)C[C@H](OC(=O)[C@H](O)[C@@H](NC(=O)c4ccccc4)c4ccccc4)C(C)=C1C3(C)C)[C@]1(OC(C)=O)CO[C@@H]1C[C@@H]2O [PACLITAXEL]
  Activity: 32%
